Assay results taken from PMC9635925, “Biological screening of a unique drug library targeting MRGPRX2” (Frontiers in Immunology, 2022).
Residue numbers refer to the chain shown, from its start. Where a name gives a salt, the structure may show the parent alone.

Tests used:
[1] = biological target: T1, MRGPRX2-WT (wild-type MRGPRX2 receptor) (Homo sapiens, UniProt Q96LB1); assay: Primary HTS, Ca2+ mobilization (fluorescence ratio, B-score) in HEK293-Gα15 cells stably expressing wild-type MRGPRX2; type: cell-based; conditions: 10 μM compound
T1 construct: expressed in transfected cells
T1 sequence (Q96LB1 1-330): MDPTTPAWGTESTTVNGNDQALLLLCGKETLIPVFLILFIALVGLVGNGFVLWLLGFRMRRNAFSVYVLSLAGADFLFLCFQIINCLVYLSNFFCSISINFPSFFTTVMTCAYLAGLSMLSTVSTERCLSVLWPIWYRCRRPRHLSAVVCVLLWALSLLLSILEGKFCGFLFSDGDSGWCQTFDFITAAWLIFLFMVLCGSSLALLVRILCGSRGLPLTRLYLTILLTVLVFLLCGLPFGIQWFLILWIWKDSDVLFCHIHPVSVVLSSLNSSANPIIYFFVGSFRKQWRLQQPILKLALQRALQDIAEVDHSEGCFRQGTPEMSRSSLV
Experimental: (§1) We performed an experimental HTS on the Johns Hopkins Drug Library, which includes 1,811 (57%) FDA-approved drugs among 3,456 total compounds (28% of all known drugs worldwide) ([15]). We performed the HTS at the Johns Hopkins University ChemBioCORE Facility and employed HEK293-Gα15 cell lines that stably expressed MRGPRX2 protein.
(§2) We utilized 10 μM compounds (each compound was tested in triplicate) and calculated the compound effect using the signal-to-background fluorescence ratio (see Supplementary Methods).
(§3) In the HTS, we determined MRGPRX2 activation by a Ca^2+ mobilization assay that recorded a fluorescence change by utilizing a Functional Drug Screening System (FDSS 6000; Hamamatsu); we evaluated the compound effect using the calculated fluorescence ratio. We further applied the B-score normalization, which provided robust corrections for variation in fluorescence ratio ([22]).
(§4) We performed an experimental high-throughput screening (HTS) on the Johns Hopkins Drug Library (JHDL), which includes 1,811 (57%) FDA-approved drugs among 3,456 total compounds (28% of all known drugs worldwide). The remaining compounds in JHDL are catalogued in one or more of the resources below: British Approved Names (BAN); Dénominations Communes Françaises (DCF); International Nonproprietary Names (INN); Japanese Adopted Names (JAN); MI (Merck Index); National Formulary drug name (NF); and United States Accepted Names (USAN). The JHU drug library is stocked in 96 well plates at 10 mM in 100% DMSO and stored at -80 °C. We used a final concentration of 10 uM for each compound and DMSO concentration of 0.1% (tested in triplicate). […] We evaluated compound effect using the calculated fluorescence ratio. We further calculated B-scores, which are a relative potency score similar to Z scores in that they are the ratio of an adjusted raw value in the numerator to a measure of variability in the denominator.

[2] = biological target: T2, MRGPRX2-MUT (MRGPRX2 N62S mutation) (Homo sapiens, UniProt Q96LB1, N62S); assay: Primary HTS, Ca2+ mobilization (fluorescence ratio, B-score) in HEK293-Gα15 cells stably expressing the MRGPRX2 N62S mutation; type: cell-based; conditions: for B-scores (MUT): 10 μM compound, MRGPRX2-MUT (N62S) cells; for Change of B-scores (%): 10 μM
T2 construct: expressed in transfected cells
T2 sequence (Q96LB1 1-330 N62S): T1 sequence (Q96LB1 1-330) with N62S
Experimental: as §1, §2, §3, §4

[3] = Supplementary Table 2, listed as Dextromethorphan (Delsym)
[4] = MRGPRX2-MUT in comparison to MRGPRX2-WT cells, Supplementary Table 1
[5] = MRGPRX2-MUT versus MRGPRX2-WT cells, Supplementary Table 2
[6] = MRGPRX2-MUT in comparison to MRGPRX2-WT cells, Table 1

SMILES	B-scores (WT) ([1]; Supplementary Table 1)	B-scores (WT) ([1]; Supplementary Table 2)	B-scores (WT) [1, 3]	B-scores (MUT) ([2]; Supplementary Table 1)	B-scores (MUT) ([2]; Supplementary Table 2)	B-scores (MUT) [2, 3]	Change of B-scores (%) [2, 4]	Change of B-scores (%) [2, 5]	Change of B-scores (%) ([2]; MRGPRX2-MUT versus MRGPRX2-WT cells, Supplementary Table 2, listed as Dextromethorphan (Delsym))	B-scores (WT) ([1]; Table 1)	B-scores (MUT) ([2]; Table 1)	Change of B-scores (%) [2, 6]
COc1ccc2c(c1)[C@]13CCCC[C@@H]1[C@H](C2)N(C)CC3 [Dextromethorphan hydrobromide]	38.47	23.02	38.47	84.34	54.88	84.34	119.23%	138.39%	119.23%			
CN1CC[C@@]23CCCC[C@@H]2[C@@H]1Cc1ccc(O)cc13 [Dextrorphan]		31.94			68.33			113.94%				
CN(C)CCN1C(=O)c2ccccc2N(C)c2ccccc21 [Dibenzepin]	25.48						-106.37%			25.48	-1.62	-106.37%
CN1CCN(c2cc3c(cc2F)c(=O)c(C(=O)O)cn3-c2ccc(F)cc2)CC1 [Difloxacin Hydrochloride]	44.81	44.81		1.54	-1.54		-103.45%	-103.45%		44.81	-1.54	-103.45%
COc1ccc([C@@H]2Sc3ccccc3N(CCN(C)C)C(=O)[C@@H]2OC(C)=O)cc1 [Diltiazem Hydrochloride]	22.99						-104.18%					
CCCCC[C@H](O)/C=C/[C@H]1[C@H](O)CC(=O)[C@@H]1C/C=C\CCCC(=O)O [Dinoprostone (Prostaglandin E2)]	40.59			17.30			-57.38%					
CN(C)CCOC(c1ccccc1)c1ccccc1 [Diphenhydramine Hydrochloride]		10.26			0.66			-93.55%				
CN(C)CCC=C1c2ccccc2COc2ccccc21 [Doxepin Hydrochloride]		12.95			1.85			-85.71%				
CNCC[C@H](Oc1cccc2ccccc12)c1cccs1 [Duloxetine Hydrochloride]	44.22			0.64			-98.55%					
CNC[C@H](O)c1ccc(O)c(O)c1 [Epinephrine Bitartrate]	25.60	25.6		11.72	11.72		-54.24%	-54.24%				
CNC[C@H](O)c1ccc(O)c(O)c1 [Epinephrine]		17.52			8.28			-52.73%				
CCCCC[C@H](O)/C=C/[C@@H]1[C@H]2C/C(=C/CCCC(=O)O)O[C@H]2C[C@H]1O [Epoprostenol]	27.44			10.83			-60.51%					
CC(Cc1ccc(O)cc1)NCC(O)c1cc(O)cc(O)c1 (stereo not drawn) [Fenoterol Hydrobromide]	20.31	20.31			-0.03		-100.16%	-100.16%				
CC(Cc1ccc(O)cc1)NCC(O)c1cc(O)cc(O)c1 (stereo not drawn) [Fenoterol]	23.48	23.48		13.78	13.78		-41.33%	-41.33%				
